Test results as given in patent US10064889B2, “Mercapto-modified biocompatible macromolecule derivatives with low degree of mercapto-modification and the cross-linked materials and uses thereof” (Bioregen Biomedical (Changzhou) Co., Ltd., priority 2010, dated 2018).

Assay: Drug release from drug-containing disulfide-bond cross-linked hyaluronic acid hydrogel into phosphate buffer solution
Type: physicochemical
Settings: 37° C., 100 rpm; for Cumulative release percentage of the drug: hydrogel 10 mg/ml hyaluronic acid, degree of mercapto-modification 3.97%
Procedure: In the preparation process of the disulfide-bond cross-linked hyaluronic acid hydrogel of Example 6 (having a concentration of hyaluronic acid of 10 mg/ml and a degree of mercapto-modification of 3.97%), 0.1-10 mg cortical hormones (e.g. Beclomethasone, Beclomethasone dipropionate, Budesonide, Dexamethasone, Prednisolone, and Prednisone) were added respectively to make the cortical hormones uniformly dispersed in the prepared cross-linked hydrogel.
10 ml phosphate buffer solution was added to 0.2 ml of the above drug-containing cross-linked hydrogel placed into a 15 ml plastic centrifugal tube. Then centrifugal tube was placed in a shaker (37° C., 100 rpm), and the ultraviolet absorption of the drugs in the supernatant was measured at regular intervals. The measurement wavelengths were as follows: Beclomethasone 246 nm, Beclomethasone dipropionate 240 nm, Budesonide 248 nm, Dexamethasone 242 nm, Prednisolone 248 nm, and Prednisone 244 nm.

Structure (SMILES) | Release behaviour from the hydrogel (in words) | Cumulative release percentage of the drug (7 days) [%] | Cumulative release percentage of the drug (14 days) [%] | Cumulative release percentage of the drug (21 days) [%]
CCC(=O)OCC(=O)[C@@]1(OC(=O)CC)[C@@H](C)C[C@H]2[C@@H]3CCC4=CC(=O)C=C[C@]4(C)[C@@]3(Cl)[C@@H](O)C[C@@]21C [Beclomethasone dipropionate] | release was rarely detected | <1 | <1 | <1
C[C@H]1C[C@H]2[C@@H]3CCC4=CC(=O)C=C[C@]4(C)[C@@]3(Cl)[C@@H](O)C[C@]2(C)[C@@]1(O)C(=O)CO [Beclomethasone] | – | 68 | 87 | 94
C[C@]12C=CC(=O)C=C1CC[C@@H]1[C@@H]2[C@@H](O)C[C@@]2(C)[C@H]1CC[C@]2(O)C(=O)CO [Prednisolone] | released basically completely in 7 days | 95 | 100 | 100
C[C@]12C=CC(=O)C=C1CC[C@@H]1[C@@H]2C(=O)C[C@@]2(C)[C@H]1CC[C@]2(O)C(=O)CO [Prednisone] | – | 86 | 99 | 100
